The values below come from ChEMBL document CHEMBL5338769, “Discovery of Norisoboldine Analogue III11 as a Novel and Potent Aryl Hydrocarbon Receptor Agonist for the Treatment of Ulcerative Colitis” (J Med Chem, 2023).

Active and inactive are the calls of the source. The calls are words filed in the database; no cut-off is given here.

In one data set the test system is EL4. Nature of the data set: Cytotoxicity against mouse EL4 cells assessed as inhibition of cell proliferation incubated for 72 hrs by MTT assay. The data set is classed as functional, cell-based. To be noted: for IC50: EL4, 72 h. (In general: Tetrazolium assays rely on reduction of a dye to a coloured formazan, in cell work by metabolically active cells.)
In data set [1] the target is T1, Aryl hydrocarbon receptor (Mus musculus, UniProt P30561).
T1 sequence (P30561 whole entry): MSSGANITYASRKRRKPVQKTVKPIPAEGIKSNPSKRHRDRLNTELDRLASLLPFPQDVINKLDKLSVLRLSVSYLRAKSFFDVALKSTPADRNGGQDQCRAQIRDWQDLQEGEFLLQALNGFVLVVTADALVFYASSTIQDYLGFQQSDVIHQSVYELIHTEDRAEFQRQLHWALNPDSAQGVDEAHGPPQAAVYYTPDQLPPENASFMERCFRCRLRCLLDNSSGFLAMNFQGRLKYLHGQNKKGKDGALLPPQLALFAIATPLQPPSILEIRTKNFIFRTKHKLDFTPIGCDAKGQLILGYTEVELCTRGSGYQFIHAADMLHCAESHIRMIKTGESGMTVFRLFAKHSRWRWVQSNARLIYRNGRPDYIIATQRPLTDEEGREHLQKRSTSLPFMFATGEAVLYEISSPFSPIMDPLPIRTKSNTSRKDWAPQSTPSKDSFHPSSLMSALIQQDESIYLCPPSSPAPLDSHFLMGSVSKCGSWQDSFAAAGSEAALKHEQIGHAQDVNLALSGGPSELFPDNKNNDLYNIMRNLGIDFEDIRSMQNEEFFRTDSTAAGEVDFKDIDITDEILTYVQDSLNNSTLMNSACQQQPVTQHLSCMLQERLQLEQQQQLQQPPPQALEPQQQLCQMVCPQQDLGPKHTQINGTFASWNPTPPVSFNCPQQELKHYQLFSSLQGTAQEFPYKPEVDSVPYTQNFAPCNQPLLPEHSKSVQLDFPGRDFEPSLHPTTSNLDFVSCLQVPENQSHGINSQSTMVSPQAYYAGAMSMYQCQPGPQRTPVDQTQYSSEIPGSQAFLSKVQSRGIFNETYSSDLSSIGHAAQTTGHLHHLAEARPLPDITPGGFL
In words: Activation of AhR transcription in C57BL/6 mouse naive T cells assessed as increase in CYP1A1 mRNA expression at 3 uM measured after 72 hrs by qRT-PCR analysis relative to control. To be noted: t cell. The data set is classed as cell-based.

The target of data set [2] is T1, Aryl hydrocarbon receptor. In words: Activation of AhR transcription in C57BL/6 mouse naive T cells assessed as increase in CYP1A1 mRNA expression at 1 uM by qRT-PCR analysis. The data set is classed as cell-based. To be noted: t cell. Background: Quantitative PCR measures a nucleic acid by following its amplification.
For data set [3], the target named is T1, Aryl hydrocarbon receptor. In words: Activation of AhR transcription in C57BL/6 mouse naive T cells assessed as increase in CYP1B1 mRNA expression at 1 to 3 uM by qRT-PCR analysis. The data set is classed as cell-based. To be noted: t cell, dose 1-3 µM.
The target in data set [4] is T1, Aryl hydrocarbon receptor. In words: Activation of AhR transcription in C57BL/6 mouse naive T cells assessed as increase in AhRR mRNA expression at 1 to 3 uM by qRT-PCR analysis. The data set is classed as cell-based. The following applies: t cell, dose 1-3 µM.
Data set [5] concerns the target T1, Aryl hydrocarbon receptor. In words: Activation of AhR transcription in C57BL/6 mouse naive T cells assessed as increase in UGT1A1 mRNA expression at 1 to 3 uM by qRT-PCR analysis. The data set is classed as cell-based. The following applies: t cell, dose 1-3 µM.
The target in data set [6] is T1, Aryl hydrocarbon receptor. Nature of the data set: Activation of AhR transcription in C57BL/6 mouse naive T cells assessed as increase in CYP1A1 mRNA expression at 1 to 3 uM by qRT-PCR analysis. The data set is classed as cell-based. The following applies: t cell, dose 1-3 µM.
The target of data set [7] is T1, Aryl hydrocarbon receptor. Nature of the data set: Activation of AhR transcription in C57BL/6 mouse naive T cells assessed as increase in CYP1A1 mRNA expression at 1 to 3 uM measured after 72 hrs by qRT-PCR analysis. Format: cell-based. The following applies: t cell, dose 1-3 µM.

On to `COc1cc2c3c(c1OC)-c1ccc(O)cc1CC3NCC2` (configuration not stated), for which the IC50 with EL4 turned out to be 64.4 µM. For the same compound, the Activity in data set [1] worked out at 150.7%.

On to `COc1cc2c3c(c1OC)-c1ccccc1CC3NCC2` (configuration not stated) [NORNUCIFERINE], for which the concentration for half-maximal inhibition (IC50) in the data set on EL4 was 26.2 µM. In data set [2], the outcome was Active.

For the compound `COc1ccc2c(c1)CC1NCCc3cc(OC)c(OC)c-2c31` (configuration not stated), the concentration for half-maximal inhibition (IC50) in the data set with EL4 was found to be 10.8 µM. Further, the Activity in data set [1] is 152.7%.

As for `COc1cc2c3c(c1OC)-c1cc(O)ccc1CC3NCC2` (configuration not stated), the Activity result in data set [3], in data set [4], in data set [5] and in data set [6] was “Not Active” in each case. Further, in the data set on EL4, the half-maximal inhibitory concentration (IC50) is 25.9 µM.

Turning to `COc1ccc2c(c1)-c1c(OC)c(OC)cc3c1C(C2)NCC3` (configuration not stated), the IC50 in the data set on EL4 turned out to be 20.7 µM. The Activity in data set [1] was found to be 177%.

In the case of `COc1cc2c(cc1OC)-c1c(OC)c(OC)cc3c1C(C2)NCC3` (configuration not stated), the Activity entry in data set [3], in data set [4], in data set [5] and in data set [6] was “Not Active” throughout. In addition, the concentration for half-maximal inhibition (IC50) in the data set with EL4 stood at 13.9 µM.

With `COc1cccc(CCN)c1`, the Activity entry in data set [7] was “Not Active”.

`COc1cc2c(cc1O)-c1c(OC)c(OC)cc3c1C(C2)NCC3` (configuration not stated): the Activity entry in data set [3], in data set [4], in data set [5] and in data set [6] was “Not Active” each time. Besides, the IC50 with EL4 came to 36.9 µM.

On to `CO/C=C/c1cc(OCc2ccccc2)ccc1Br`, for which, in data set [7], the Activity result was “Not Active”.

For the compound `COc1cccc(CCNC(=O)OCc2ccccc2)c1`, the Activity entry in data set [7] was “Not Active”.

With `O=Cc1cc(OCc2ccccc2)ccc1Br`, the Activity result in data set [7] is on record as “Not Active”.

Regarding `COc1cc2c3c(c1)-c1ccc(OCc4ccccc4)cc1CC3N(C(=O)OCc1ccccc1)CC2` (configuration not stated), the Activity result in data set [7] is given as “Not Active”.

As to `COc1cc2c(cc1O)CC1NCCc3cc(OC)c(OC)c-2c31` (configuration not stated), the IC50 in the data set on EL4 turned out to be 48.4 µM. Moreover, the result in data set [2] was Active.

Take `COc1ccc2c(c1)CCN(C(=O)OCc1ccccc1)C2Cc1cc(OCc2ccccc2)ccc1Br` (configuration not stated): in data set [7], the Activity result is “Not Active”.

`COc1cc2c3c(c1OC)-c1ccccc1CC3N(C)CC2` (stereo not drawn) [(+/-)-NUCIFERINE]: the Activity result in data set [3], in data set [4], in data set [5] and in data set [6] was “Not Active” in each case. In the data set on EL4, the concentration for half-maximal inhibition (IC50) was 35.9 µM.

Consider `O=Cc1cc(O)ccc1Br`, for which, in data set [7], the Activity entry was “Not Active”.

On to `COc1cc2c(cc1O)CC1c3c(cc(O)c(OC)c3-2)CCN1C` (configuration not stated), for which the IC50 in the data set with EL4 is 70.1 µM. Also, the Activity in data set [1] was found to be 222%.

For `Oc1ccc2c(c1)CC1NCCc3cccc-2c31` (configuration not stated), the outcome in the data set with EL4 was inactive.

`COc1cc2c(cc1O)CC1c3c(cc(OC)c(O)c3-2)CCN1C(=O)OC(C)(C)C` (configuration not stated): in the data set on EL4, the IC50 worked out at 37 µM. Besides, the outcome in data set [2] was Active.

The term IC50 denotes the concentration needed to halve the response being measured.
